Laboratory results taken from patent US20100216779A1 (GLAXOSMITHKLINE LLC, priority 2007, published 2010).

Columns and labels:
Type in all cases: cell-based
[1] = target: T1, IR (NIH-3T3 cells over expressing human IGF-1R or IR) (Homo sapiens, UniProt P06213); test: IR cellular autophosphorylation (DELFIA); settings: NIH-3T3 cells over expressing IR, insulin stimulated
T1 construct: expressed in transfected cells; host or cells: NIH-3T3 (mouse fibroblasts)
Procedure: (§1) D. IGF-1R and IR Cellular Autophosphorylation (DELFIA)
(§2) NIH-3T3 cells over expressing human IGF-1R or IR were plated in 96-well plates (10,000 cells/well) in culture media containing 10% fetal bovine serum and incubated at 37° C. in a 5% CO2 incubator. Twenty four hours post-plating, cells were treated with different concentrations of test compounds ranging from 30 uM to 1.5 nM. Two hours after compound addition, cells were stimulated with either human IGF-1 (30 ng/mL) or insulin (3 ug/mL) for 15 minutes. Cell lysates are analyzed for phosphorylated receptors using dissociation enhanced lanthanide fluor-immuno assay (DELFIA) with anti-IGF-1R (MAB391, R&D Systems, Minneapolis, Minn.) or anti-IR[…](sc-711, Santa Cruz Biotechnology, Santa Cruz, Calif.) capture antibody and europium-labeled anti-pTyr antibody (Eu-N1 PT66, Perkin Elmer, Waltham, Mass.) for detection. The fluorescence signal for cells treated with compounds was expressed as percent relative to 100% stimulation (IGF-1 or insulin stimulated signal). […]

[2] = tested on: COLO205 (colon); test: Inhibition of cell proliferation, CellTiter-Glo, COLO205; settings: Homo sapiens, COLO 205, 72 h
Procedure: C. Inhibition of Cell Proliferation
Cell proliferation was measured by either CellTiter-Glo (measures cellular ATP level as a surrogate for total cell number) or by InCell analyzer (counts number of nuclei as a measure of cell number). For CellTiter-Glo assay, exponentially growing cell lines of different tumor origins, cultured in appropriate media containing 10% fetal bovine serum at 37° C. in a 5% CO2 incubator, were plated at low density (less than 2000 cells/well) in 96-well plates. […] Several wells were left untreated as a control. Seventy two hours post-treatment, cell numbers were determined using 50-100 ul per well of CellTiter-Glo (Promega #G7573). Plates were incubated at 37° C. for 30 minutes and the chemiluminescent signal was read on the Victor V or Envison 2100 reader. […]

[3] = target: T2, human IGF-1R (NIH-3T3 cells over expressing human IGF-1R) (Homo sapiens, UniProt P08069); test: IGF-1R cellular autophosphorylation (DELFIA); settings: IGF-1 stimulated
T2 construct: expressed in transfected cells; host or cells: NIH-3T3 (mouse fibroblasts)
Procedure: as §1, §2

T1 sequence (P06213 28-1382): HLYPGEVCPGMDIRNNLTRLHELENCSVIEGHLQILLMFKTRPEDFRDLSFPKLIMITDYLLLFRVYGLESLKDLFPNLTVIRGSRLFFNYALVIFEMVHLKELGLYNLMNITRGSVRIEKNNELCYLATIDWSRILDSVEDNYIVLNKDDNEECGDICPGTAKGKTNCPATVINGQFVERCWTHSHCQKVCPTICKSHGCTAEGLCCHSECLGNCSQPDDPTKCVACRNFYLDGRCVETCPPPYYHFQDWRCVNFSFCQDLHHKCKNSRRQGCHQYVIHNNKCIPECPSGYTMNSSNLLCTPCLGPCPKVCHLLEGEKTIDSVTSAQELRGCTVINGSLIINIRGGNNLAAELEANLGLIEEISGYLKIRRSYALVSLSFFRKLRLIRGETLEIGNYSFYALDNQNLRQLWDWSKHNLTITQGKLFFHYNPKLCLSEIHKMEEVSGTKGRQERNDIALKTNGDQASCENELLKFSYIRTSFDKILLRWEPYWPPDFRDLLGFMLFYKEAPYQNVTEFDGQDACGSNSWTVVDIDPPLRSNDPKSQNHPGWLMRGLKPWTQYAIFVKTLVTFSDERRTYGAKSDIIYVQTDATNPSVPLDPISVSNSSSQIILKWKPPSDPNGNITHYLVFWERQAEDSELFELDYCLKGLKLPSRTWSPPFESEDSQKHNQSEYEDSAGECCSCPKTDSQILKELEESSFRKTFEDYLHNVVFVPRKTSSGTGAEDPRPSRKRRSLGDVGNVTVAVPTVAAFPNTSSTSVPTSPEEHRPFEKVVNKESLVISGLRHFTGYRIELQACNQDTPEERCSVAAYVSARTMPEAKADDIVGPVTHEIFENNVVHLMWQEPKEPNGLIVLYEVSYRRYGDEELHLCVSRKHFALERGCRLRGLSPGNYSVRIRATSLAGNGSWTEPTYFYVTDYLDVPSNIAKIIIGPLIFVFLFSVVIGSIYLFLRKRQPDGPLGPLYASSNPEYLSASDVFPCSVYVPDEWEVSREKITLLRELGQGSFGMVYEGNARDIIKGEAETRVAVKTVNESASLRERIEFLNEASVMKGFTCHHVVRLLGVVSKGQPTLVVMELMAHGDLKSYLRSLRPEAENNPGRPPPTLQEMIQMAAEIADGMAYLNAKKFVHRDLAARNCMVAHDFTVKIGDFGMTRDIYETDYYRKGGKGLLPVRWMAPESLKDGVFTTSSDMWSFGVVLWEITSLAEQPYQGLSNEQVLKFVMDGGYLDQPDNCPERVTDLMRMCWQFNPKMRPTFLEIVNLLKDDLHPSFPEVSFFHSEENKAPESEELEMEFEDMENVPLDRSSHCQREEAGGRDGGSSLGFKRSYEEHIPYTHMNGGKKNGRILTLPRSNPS
T2 sequence (P08069 31-1367): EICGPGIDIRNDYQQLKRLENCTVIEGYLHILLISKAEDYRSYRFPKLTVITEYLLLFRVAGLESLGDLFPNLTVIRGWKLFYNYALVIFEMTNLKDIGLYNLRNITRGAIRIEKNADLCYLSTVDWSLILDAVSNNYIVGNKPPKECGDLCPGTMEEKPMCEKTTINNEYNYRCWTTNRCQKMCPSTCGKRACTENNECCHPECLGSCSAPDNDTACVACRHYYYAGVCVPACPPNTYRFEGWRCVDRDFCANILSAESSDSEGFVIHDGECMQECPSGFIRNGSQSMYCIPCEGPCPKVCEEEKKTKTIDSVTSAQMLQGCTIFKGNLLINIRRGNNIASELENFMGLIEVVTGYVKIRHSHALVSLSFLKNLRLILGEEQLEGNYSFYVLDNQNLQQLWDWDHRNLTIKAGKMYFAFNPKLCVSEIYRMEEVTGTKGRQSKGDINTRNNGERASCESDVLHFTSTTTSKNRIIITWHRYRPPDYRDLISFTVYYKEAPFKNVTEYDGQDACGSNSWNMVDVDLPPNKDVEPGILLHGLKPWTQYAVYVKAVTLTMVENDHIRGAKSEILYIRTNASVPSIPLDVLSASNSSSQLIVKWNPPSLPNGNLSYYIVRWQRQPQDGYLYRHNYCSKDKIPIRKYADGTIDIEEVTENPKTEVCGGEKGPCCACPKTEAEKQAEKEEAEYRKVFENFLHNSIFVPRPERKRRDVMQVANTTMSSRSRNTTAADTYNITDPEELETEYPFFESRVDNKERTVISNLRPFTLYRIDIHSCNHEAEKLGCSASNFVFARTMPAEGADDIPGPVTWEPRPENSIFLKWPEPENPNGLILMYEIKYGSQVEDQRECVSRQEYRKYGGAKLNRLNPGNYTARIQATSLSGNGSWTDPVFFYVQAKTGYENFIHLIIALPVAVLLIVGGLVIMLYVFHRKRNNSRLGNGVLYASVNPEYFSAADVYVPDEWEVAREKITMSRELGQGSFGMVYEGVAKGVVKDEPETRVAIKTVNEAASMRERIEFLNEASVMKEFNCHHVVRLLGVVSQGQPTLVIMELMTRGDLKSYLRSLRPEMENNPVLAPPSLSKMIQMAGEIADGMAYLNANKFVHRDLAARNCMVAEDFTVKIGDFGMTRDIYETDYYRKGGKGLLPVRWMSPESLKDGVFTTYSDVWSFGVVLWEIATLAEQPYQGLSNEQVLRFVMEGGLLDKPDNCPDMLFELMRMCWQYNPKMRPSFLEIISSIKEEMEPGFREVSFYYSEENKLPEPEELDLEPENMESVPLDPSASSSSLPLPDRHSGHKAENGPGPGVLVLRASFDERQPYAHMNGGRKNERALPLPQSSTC

SMILES	IC50 [1]	IC50 [2]	IC50 [3]
CCOc1cc(N2CCN(C3CCN(CCF)CC3)CC2)ccc1Nc1nccc(-c2c(-c3cccc(C(=O)Nc4c(F)cccc4F)c3)nc3ccccn23)n1 [Example 91, N-(2,6-difluorophenyl)-3-(3-{2-[(2-(ethyloxy)-4-{4-[1-(2-fluoroethyl)-4-piperidinyl]-1-piperazinyl}phenyl)amino]-4-pyrimidinyl}imidazo[1,2-a]pyridin-2-yl)benzamide]	< 100 nM	250 to 1000 nM	< 100 nM
CC(C)COc1cc(N2CCC(N3CCCCC3)CC2)ccc1Nc1nccc(-c2c(-c3cccc(C(=O)Nc4c(F)cccc4F)c3)nc3ccccn23)n1 [Example 32, 3-{3-[2-({4-(1,4′-bipiperidin-1′-yl)-2-[(2-methylpropyl)oxy]phenyl}amino)-4-pyrimidinyl]imidazo[1,2-a]pyridin-2-yl}-N-(2,6-difluorophenyl)benzamide]	> 500 nM	250 to 1000 nM	> 500 nM
COc1cc(N2CCN(C3CCN(CCF)CC3)CC2)ccc1Nc1nccc(-c2c(-c3cccc(C(=O)Nc4c(F)cccc4F)c3)nc3ccccn23)n1 [Example 90, N-(2,6-difluorophenyl)-3-[3-(2-{[4-{4-[1-(2-fluoroethyl)-4-piperidinyl]-1-piperazinyl}-2-(methyloxy)phenyl]amino}-4-pyrimidinyl)imidazo[1,2-a]pyridin-2-yl]benzamide]	< 100 nM	250 to 1000 nM	< 100 nM
COc1ccn2c(-c3ccnc(Nc4ccc(N5CCC(N6CCCCC6)CC5)cc4OC)n3)c(-c3cccc(C(=O)Nc4c(F)cccc4F)c3)nc2c1 [Example 39, 3-[3-(2-{[4-(1,4′-bipiperidin-1′-yl)-2-(methyloxy)phenyl]amino}-4-pyrimidinyl)-7-(methyloxy)imidazo[1,2-a]pyridin-2-yl]-N-(2,6-difluorophenyl)benzamide]	100 to 500 nM	> 1000 nM	< 100 nM
COc1cc(N2CCC[C@H](O)C2)ccc1Nc1nccc(-c2c(-c3cccc(C(=O)Nc4c(F)cccc4F)c3)nc3ccccn23)n1 [Example 169, N-(2,6-difluorophenyl)-3-[3-(2-{[4-[(3S)-3-hydroxy-1-piperidinyl]-2-(methyloxy)phenyl]amino}-4-pyrimidinyl)imidazo[1,2-a]pyridin-2-yl]benzamide]	100 to 500 nM	250 to 1000 nM	100 to 500 nM
COc1cc(N2CCC(N3CCCCC3)CC2)c(C)cc1Nc1nccc(-c2c(-c3ccc(OC)c(C(=O)Nc4c(F)cccc4F)c3)nc3ccccn23)n1 [Example 109, 5-[3-(2-{[4-(1,4′-bipiperidin-1′-yl)-5-methyl-2-(methyloxy)phenyl]amino]-4-pyrimidinyl)imidazo[1,2-a]pyridin-2-yl]-N-(2,6-difluorophenyl)-2-(methyloxy)benzamide]	< 100 nM	< 250 nM	< 100 nM
COc1cc([C@H]2CC[C@H](N3CCN(CCS(C)(=O)=O)CC3)CC2)ccc1Nc1nccc(-c2c(-c3cccc(C(=O)Nc4c(F)cccc4F)c3)nc3ccccn23)n1 [Example 94, N-(2,6-difluorophenyl)-3-[3-(2-{[2-(methyloxy)-4-(trans-4-{4-[2-(methylsulfonyl)-ethyl]-1-piperazinyl}cyclohexyl)phenyl]amino}-4-pyrimidinyl)imidazo[1,2-a]pyridin-2-yl]benzamide]	100 to 500 nM	> 1000 nM	< 100 nM
COc1cc(N2CCC(CN3CCCCC3)CC2)ccc1Nc1nccc(-c2c(-c3cccc(C(=O)Nc4c(F)cccc4F)c3)nc3ccccn23)n1 [Example 36, N-(2,6-difluorophenyl)-3-{3-[2-({2-(methyloxy)-4-[4-(1-piperidinylmethyl)-1-piperidinyl]phenyl}amino)-4-pyrimidinyl]imidazo[1,2-a]pyridin-2-yl}benzamide]	< 100 nM	250 to 1000 nM	< 100 nM
COc1cc(-c2nnc(CN(C)C)o2)ccc1Nc1nccc(-c2c(-c3ccc(OC)c(C(=O)Nc4c(F)cccc4F)c3)nc3ccccn23)n1 [Example 26, N-(2,6-difluorophenyl)-5-[3-(2-{[4-{5-[(dimethylamino)methyl]-1,3,4-oxadiazol-2-yl}-2-(methyloxy)phenyl]amino}-4-pyrimidinyl)imidazo[1,2-a]pyridin-2-yl]-2-(methyloxy)benzamide]	> 500 nM	250 to 1000 nM	< 100 nM
COc1ccn2c(-c3ccnc(Nc4ccc(N5CCC(N6CCCCC6)CC5)cc4OC)n3)c(-c3ccc(OC)c(C(=O)Nc4c(F)cccc4F)c3)nc2c1 [Example 5, 5-[3-(2-{[4-(1,4′-bipiperidin-1′-yl)-2-(methyloxy)phenyl]amino}-4-pyrimidinyl)-7-(methyloxy)imidazo[1,2-a]pyridin-2-yl]-N-(2,6-difluorophenyl)-2-(methyloxy)benzamide]	< 100 nM	> 1000 nM	< 100 nM
COc1cc(N2CCC(N3CCCCC3)CC2)ccc1Nc1nccc(-c2c(-c3cccc(C(=O)Nc4ccc(Cl)cc4F)c3)nc3ccccn23)n1 [Example 45, 3-[3-(2-{[4-(1,4′-bipiperidin-1′-yl)-2-(methyloxy)phenyl]amino}-4-pirimidinyl)imidazo[1,2-a]pyridin-2-yl]-N-(4-chloro-2-fluorophenyl)benzamide]	100 to 500 nM	250 to 1000 nM	< 100 nM
COc1cc(CCCN2CCN(C)CC2)ccc1Nc1nccc(-c2c(-c3cccc(C(=O)Nc4c(F)cccc4F)c3)nc3ccccn23)n1 [Example 141, N-(2,6-difluorophenyl)-3-{3-[2-({2-(methyloxy)-4-[3-(4-methyl-1-piperazinyl)propyl]phenyl}amino)-4-pyrimidinyl]imidazo[1,2-a]pyridin-2-yl}benzamide]	100 to 500 nM	250 to 1000 nM	100 to 500 nM
COc1cc(C2CCN(CCF)CC2)ccc1Nc1nccc(-c2c(-c3ccc(OC)c(C(=O)Nc4c(F)cccc4F)c3)nc3ccccn23)n1 [Example 179, N-(2,6-difluorophenyl)-5-[3-(2-{[4-[1-(2-fluoroethyl)-4-piperidinyl}-2-(methyloxy)phenyl]-amino}-4-pyrimidinyl)imidazo[1,2-a]pyridin-2-yl]-2-(methyloxy)benzamide]	< 100 nM	250 to 1000 nM	< 100 nM
COc1cc(CCCN2CCN(C)CC2)ccc1Nc1nccc(-c2c(-c3ccc(OC)c(C(=O)Nc4c(F)cccc4F)c3)nc3ccccn23)n1 [Example 142, N-(2,6-difluorophenyl)-2-(methyloxy)-5-{3-[2-({2-(methyloxy)-4-[3-(4-methyl-1-piperazinyl)propyl]phenyl}amino)-4-pyrimidinyl]imidazo[1,2-a]pyridin-2-yl}benzamide]	< 100 nM	250 to 1000 nM	< 100 nM
COc1cc(N2CCC(N3C[C@@H](C)O[C@@H](C)C3)CC2)ccc1Nc1nccc(-c2c(-c3cccc(C(=O)Nc4c(F)cccc4F)c3)nc3ccccn23)n1 [Example 47, N-(2,6-difluorophenyl)-3-[3-(2-{[4-{4-[(2R,6S)-2,6-dimethyl-4-monpholinyl]-1-piperidinyl}-2-(methyloxy)phenyl]amino}-4-pyrimidinyl)imidazo[1,2-a]pyridin-2-yl]benzamide]	100 to 500 nM	250 to 1000 nM	< 100 nM
COc1cc(N2CCN(CCS(C)(=O)=O)CC2)ccc1Nc1nccc(-c2c(-c3ccc(OC)c(C(=O)Nc4c(F)cccc4F)c3)nc3ccccn23)n1 [Example 135, N-(2,6-difluorophenyl)-2-(methyloxy)-5-(3-{2-[(2-(methyloxy)-4-{4-[2-(methylsulfonyl)ethyl]-1-piperazinyl}phenyl)amino]-4-pyrimidinyl}imidazo[1,2-a]pyridin-2-yl)benzamide]	< 100 nM	250 to 1000 nM	< 100 nM
COc1cc([C@H]2CC[C@@H](N3CCN(CCS(C)(=O)=O)CC3)CC2)ccc1Nc1nccc(-c2c(-c3cccc(C(=O)Nc4c(F)cccc4F)c3)nc3ccccn23)n1 [Example 93, N-(2,6-difluorophenyl)-3-[3-(2-{[2-(methyloxy)-4-(cis-4-{4-[2-(methylsulfonyl)-ethyl]-1-piperazinyl}cyclohexyl)phenyl]amino]-4-pyrimidinyl)imidazo[1,2-a]pyridin-2-yl]benzamide]	< 100 nM	250 to 1000 nM	< 100 nM
CCOc1ccc(-c2nc3ccccn3c2-c2ccnc(Nc3ccc(CCN4CCN(C)CC4)cc3OC)n2)cc1C(=O)Nc1c(F)cccc1F [Example 133, N-(2,6-difluorophenyl)-2-(ethyloxy)-5-{3-[2-({2-(methyloxy)-4-[2-(4-methyl-1-piperazinyl)ethyl]phenyl}amino)-4-pyrimidinyl]imidazo[1,2-a]pyridin-2-yl}benzamide]	< 100 nM	250 to 1000 nM	< 100 nM
